Test results as given in US20200237700A1, “METHODS OF REDUCING OR PREVENTING OXIDATION OF SMALL DENSE LDL OR MEMBRANE POLYUNSATURATED FATTY ACIDS” (Amarin Pharmaceuticals Ireland Limited, priority 2015, published 2020).
Where “and” joins values, the source holds several entries; their conditions need not be identical. Equal entries are not always repeated.

Columns and labels:
[1] = system: sdLDL isolated from human subjects under hyperglycemia; assay: Glucose-induced sdLDL oxidation, TBARS/MDA (Example 10); type: biochemical; conditions: 10.0 μM; glucose 200 mg/dL
Experimental: Vitamin E (α-tocopherol) purchased from Sigma-Aldrich was prepared in ethanol at 1.0 mM (c=3.06×10^4 M^−1 cm^−1 at 294 nm) prior to experimental use. Test compounds were further diluted in ethanol or aqueous buffer as needed. Phosphate Buffered Saline (PBS) purchased from Sigma-Aldrich was prepared in double distilled water at 10 mM (138 mM NaCl, 2.7 mM KCl, pH 7.4). […] Lipid oxidation was measured by the colorimetric detection of malondialdehyde (MDA), a marker of oxidative stress. Data were presented as mean±SD for (n) separate samples or experiments. Differences between groups were analyzed using the unpaired, two-tailed Student's t-test (for comparisons between only two groups) or ANOVA followed by Student-Newman-Keuls multiple comparisons post hoc analysis (for comparisons between three or more groups).

human sdLDL = assay: Copper-induced sdLDL oxidation, TBARS (Example 7); type: biochemical
Experimental: (§1) An experiment to study the antioxidant effect of EPA in LDL and small dense […] performed. […] Fenofibrate, gemfibrozil, and niacin were purchased from Sigma-Aldrich. […] Vitamin E was also incubated with sample aliquots as a positive control.

HUVECs exposed to oxLDL = assay: NO and ONOO− release from HUVECs exposed to oxLDL, nanosensors (Example 8); type: cell-based, human
Experimental: Human umbilical vein endothelial cells (HUVECs) were isolated into primary cultures from female donors by Clonetics (San Diego, Calif.) and purchased as proliferating cells. All cell culture donors were healthy, with no pregnancy or prenatal complications. […] The confluent cells (4 to 5×10^5 cells/35 mm dish) were placed with minimum essential medium containing 3 mM L-arginine and 0.1 mM BH4 [(6R)-5,6,7,8-tetrahydrobiopterin]. Before experimental use, the cells (from second or third passage) were rinsed twice with Tyrode-HEPES buffer with 1.8 mM CaCl2.
The omega-3 fatty acids (O3FAs) cis-5,8,11,14,17-eicosapentaenoic acid (EPA) and docosahexaenoic acid (DHA) were purchased from Sigma-Aldrich (St. Louis, Mo.) and prepared initially at 11 mM in redistilled ethanol. Primary and secondary O3FA stock solutions were prepared and stored under argon at −20° C. […]
Oxidation was monitored by the use of measurements of TBARS. […] TBARS concentration was determined as malondialdehyde (MDA) equivalents with the use of an MDA standard curve. […]
The amperometric method (with a response time of 0.1 ms) provides a quantitative signal (current) that is directly proportional to changes (from basal levels) in NO or ONOO^− concentration. […] Basal NO or ONOO^− levels were measured by differential pulse voltammetry in separate experiments. […]

[2] = Small angle x-ray diffraction of cholesterol-enriched POPC model membranes, cholesterol domain peak intensity (Example 9); type: physicochemical
Experimental: The fatty acid stock solutions were stored at −20° C. until use. […] Samples were shell-dried under nitrogen gas and placed under vacuum for 3 hours to remove residual solvent at room temperature. After desiccation, each sample was resuspended in saline buffer (0.5 mM HEPES, 154 mM NaCl, pH 7.3) to yield a final phospholipid concentration of 2.5 mg/mL. Lipid suspensions were then vortexed for 3 minutes at ambient temperature to form MLVs. Membrane lipid vesicles were oriented for x-ray diffraction analysis as described by others (e.g., Herbette et al., Biophys. […] Briefly, a 100 μL aliquot of each MLV preparation (containing 250 μg MLV) was transferred to a Lucite® sedimentation cell fitted with an aluminum foil substrate designed to collect MLVs into a single membrane pellet upon centrifugation. […] After centrifugal orientation, sample supernatants were aspirated and aluminum foil substrates, each supporting a single membrane pellet, were removed from the sedimentation cells. Sample pellets were dried for 5-10 minutes at ambient conditions, mounted onto curved glass supports, and placed in hermetically-sealed, brass or glass containers (for immediate analysis or temporary storage, respectively). All x-ray diffraction experiments were conducted at 20° C., 74% relative humidity. The latter was established by exposing membrane samples to saturated solutions of L-(+)-tartaric acid (K2C4H4O6.½H2O) for at least 1 hour prior to experimental analysis. Oriented membrane samples were aligned at grazing incidence with respect to a collimated, mono-chromatic CuKα x-ray beam (Kα1 and Kα2 unresolved; λ=1.54 Å) produced by a Rigaku Rotaflex RU-200, high-brilliance microfocus generator (Rigaku-MSC, The Woodlands, Tex.) as previously described (Mason et al., Biophys. J., vol. 55(4), pages 769-778 (1989)). The samples were initially subjected to x-ray diffraction analysis at least 12 hours after formation of the membrane pellets and retested for up to several days. […] Collimation of the x-ray beam was achieved using a single Franks mirror. Diffraction data were collected on a one-dimensional, position-sensitive electron detector (Hecus X-ray Systems, Graz, Austria) at a sample-to-detector distance of 150 mm from the sample site. […] Routines written in Origin 8.6 (OriginLab Corporation, Northampton, Mass.) were used to determine total peak area (associated with all diffraction peaks in a given pattern) against which the second-order cholesterol domain peak was normalized. […] Differences between groups were analyzed using the two-tailed, Student's t-test (for comparisons between only two groups) or ANOVA followed by Dunnett or Student-Newman-Keuls multiple comparisons post-hoc analysis (for comparisons between three or more groups). […]

[3] = system: human LDL (unfractionated); assay: Copper-induced unfractionated LDL oxidation, TBARS 1 hr (Example 7); type: biochemical; conditions: 10 μM
Experimental: as §1

[4] = EPA to phospholipid 1:30 (Table 3)

Row | SMILES | inhibited sdLDL oxidation as compared to vehicle controls [1] [%] | sdLDL oxidation (formation of MDA) [1] [µM] | sdLDL oxidation after 4 hours as compared to vehicle or DHA (human sdLDL; 10.0 μM, 4 hours) | inhibition of sdLDL oxidation vs vehicle (human sdLDL; each agent at 1.0 μM, 1 hr) [%] | inhibited TBARS formation / sdLDL oxidation vs vehicle (human sdLDL; each agent at 10 μM, 1 hr) | increased NO release (HUVECs exposed to oxLDL; ECs exposed to oxLDL, as compared to vehicle) [%] | % Change (vs. Control) [2, 4] [%] | Relative Cholesterol Domain Peak Intensity [2, 4] | inhibited TBARS formation compared to vehicle-treated control ([3]; unfractionated LDL) [%] | glucose-induced sdLDL oxidation [1] | effect on sdLDL oxidation as compared to vehicle-treated controls (human sdLDL; 10 μM, 1 hour) | NO/ONOO− Ratio (HUVECs exposed to oxLDL; oxLDL 20 min, then treatment 1 hour, EPA 10 μM, ATM 1.0 μM) | effect on cholesterol domains / domain size ([2]; drug-to-phospholipid mole ratio 1:30) | effect on unfractionated LDL oxidation as compared to vehicle-treated controls [3]
1 | CC/C=C\C/C=C\C/C=C\C/C=C\C/C=C\CCCC(=O)O [EPA, cis-5,8,11,14,17-eicosapentaenoic acid] | 94 | 0.2 ± 0.1 | significantly inhibited sdLDL oxidation | 19±8 | 93±2% and 92±8% | 45 | −65.5 ± 17.1 | 14.6 ± 5.0 | > 90 |  |  |  |  | 
2 | O=C(O)c1cccnc1 [niacin, nicotinic acid] |  |  |  |  |  |  |  |  |  | did not inhibit glucose-induced sdLDL oxidation | no significant effect | 2.00 ± 0.52 | no significant changes in cholesterol domain size | no significant effect
